Measured values as given in US8895504B2, “Amylin derivatives” (priority 2008, dated 2014).
*1 amine or outer side, *2 acyl side, *3 side chain or, on linkers, in order; H or OH if unused. Where a SMILES comes first, the peptide text is derived from it. Bridges are numbered along the chain shown (N, C = ends). The star is where a group is joined. C20 diacid = O=C(O)CCCCCCCCCCCCCCCCCCC(=O)*; γGlu = O=C(O)[C@H](CCC(=O)[*:2])N[*:1]

Columns and labels:
[1] = target: T1, Amylin 3(a) receptor (human calcitonin receptor (CTa) and RAMP-3) (Homo sapiens, UniProt O60896+P30988); assay: Luciferase assay (III), BHK Amylin 3(a)//CRE-luc cells; format: cell-based; conditions: BHK cells with Amylin 3(a) receptor and CRE luciferase reporter, 4 hours incubation; read-out: Potency Luciferase
T1 construct: expressed in transfected cells; host or cells: BHK570 cells, stably transfected with a CRE-luciferase reporter
T1 sequence (O60896 24-148): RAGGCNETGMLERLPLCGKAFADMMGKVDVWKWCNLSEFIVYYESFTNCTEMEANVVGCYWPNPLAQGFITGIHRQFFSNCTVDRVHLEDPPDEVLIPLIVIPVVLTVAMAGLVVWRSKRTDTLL
T1 sequence (P30988 25-474): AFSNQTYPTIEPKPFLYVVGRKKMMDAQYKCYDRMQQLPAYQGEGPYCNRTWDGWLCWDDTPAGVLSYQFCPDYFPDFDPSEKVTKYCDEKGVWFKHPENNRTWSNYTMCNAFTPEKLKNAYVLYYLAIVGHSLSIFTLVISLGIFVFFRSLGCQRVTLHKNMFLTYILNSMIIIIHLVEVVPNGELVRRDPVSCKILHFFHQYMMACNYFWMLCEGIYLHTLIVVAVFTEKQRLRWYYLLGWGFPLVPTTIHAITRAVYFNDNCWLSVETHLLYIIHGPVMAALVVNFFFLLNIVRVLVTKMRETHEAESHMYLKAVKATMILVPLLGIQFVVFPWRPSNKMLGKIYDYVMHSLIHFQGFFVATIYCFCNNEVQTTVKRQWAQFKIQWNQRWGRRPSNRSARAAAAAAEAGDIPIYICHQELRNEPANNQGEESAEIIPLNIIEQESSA
In short: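 Read-out is CRE-driven luciferase luminescence, taken 30 min after LucLite addition at room temperature. Compounds were incubated 4 h at 37° C in assay medium (10% FBS, 10 mM Hepes, pH 7,4). The cell line is BHK570 co-transfected with human calcitonin receptor CTa and RAMP-3, seeded overnight before use.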

[2] = Assay (VI) PK - determination of T½ in rat; format: in vivo; conditions: sc, terminal plasma half-life, subcutaneous, approx 20 nmol/kg, male Sprague Dawley rats
Description: Assay (VI) PK—Determination OF T½ in Rat
T½ is the terminal half-life=ln 2/λz of a compound in plasma. λz is the first order rate constant associated with the terminal (log-linear) portion of the plasma concentration-time curve and is estimated by linear regression of time vs. log concentration.
T½ values of the amylin analogues of the invention is determined by pharmacokinetic studies in Sprague Dawley male rats, from Taconic Europe and the principles of laboratory animal care are followed.
An acclimatization period of approximately 7 days was allowed before the animals entered the study. At start of the acclimatization period the rats were in the weight range of 300-400 g. The rats had permanent catheters inserted in a. carotis which were used for blood sampling.
The studies were conducted in an animal room which was illuminated to give a cycle of approx 12 hours light and 12 hours darkness. The animals were housed individually due to the catheters and had food and water ad lib. The animals were weighed on the days of dosing.
In the present studies the test substances were administered subcutaneously in approx 20 nmol/kg dose. The animals received a single subcutaneous injection to the neck using a 25 G needle with syringe. Each test substance was given to typically three but in some cases two or four animals.
A full plasma concentration-time profile, employing 8-10 sampling points, was obtained from each animal. In example blood samples were collected according to the following schedule:
After subcutaneous administration:
Predose (0), 0.5, 1, 1.5, 2, 4, 6, 12, 24, 48 and 72 hours after injection. At each sampling time, 0.08 to 0.10 ml of blood was drawn from each animal. The blood samples were taken via the catheter.
The blood samples were collected into EDTA test tubes. Blood samples were kept on ice for max 20 min. before centrifugation. Plasma was separated using centrifugation (i.e. at 4° C., 10 min., 1500 G) and was immediately transferred to Micronic tubes or PCR plates. Approximately 40 μl plasma was transferred and was stored at −20° C. until assayed. The plasma samples were assayed for the content of amylin using an ELISA assay.
The plasma concentration-time profiles were analysed by a non-compartmental pharmacokinetic analysis (NCA) using WinNonlin Professional 5.0 (Pharsight Inc., Mountain View, Calif., USA). NCA was performed using the individual plasma concentration-time profiles from each animal. T½ is the terminal half-life=ln 2/λz and was determined from λz, the first order rate constant associated with the terminal (log-linear) portion of the curve, estimated by linear regression of time vs. log concentration.
ELISA Plasma Assay for Amylin Quantification
The human amylin ELISA is a monoclonal antibody-based sandwich immunoassay for determining amylin levels in human plasma. The capture antibody recognizes human amylin, amylin acid (deamidated amylin), a 1-20 fragment of amylin, but not reduced amylin. The detection antibody binds to reduced or unreduced human amylin but not amylin acid and is complexed with streptavidin-alkaline phosphatase. The substrate, 4-methylumbelliferyl phosphate, is applied to the completed sandwich and the fluorescent signal, monitored at 355 nm/460 nm, is proportional to the amount of amylin present in the sample.

## CC[C@H](C)[C@H](NC(=O)[C@@H]1CCCN1C(=O)CNC(=O)[C@H](Cc1ccccc1)NC(=O)[C@H](CC(N)=O)NC(=O)[C@H](CC(N)=O)NC(=O)[C@H](CO)NC(=O)[C@H](CO)NC(=O)[C@H](Cc1c[nH]cn1)NC(=O)[C@H](Cc1c[nH]cn1)NC(=O)[C@H](CC(C)C)NC(=O)[C@H](Cc1ccccc1)NC(=O)[C@H](CC(N)=O)NC(=O)[C@H](C)NC(=O)[C@H](CC(C)C)NC(=O)[C@H](CCCNC(=N)N)NC(=O)[C@H](CCC(N)=O)NC(=O)[C@@H](NC(=O)[C@H](C)NC(=O)[C@@H]1CSSC[C@H](NC(=O)[C@H](Cc2c[nH]cn2)NC(=O)[C@H](Cc2c[nH]cn2)NC(=O)[C@H](Cc2c[nH]cn2)NC(=O)CC[C@H](NC(=O)CCCCCCCCCCCCCCCCCCC(=O)O)C(=O)O)C(=O)N[C@@H](CC(N)=O)C(=O)N[C@@H]([C@@H](C)O)C(=O)N[C@@H](C)C(=O)N[C@@H]([C@@H](C)O)C(=O)N1)[C@@H](C)O)C(=O)N[C@@H](CC(C)C)C(=O)N1CCC[C@H]1C(=O)N1CCC[C@H]1C(=O)N[C@H](C(=O)N[C@@H](CC(N)=O)C(=O)N[C@H](C(=O)NCC(=O)N[C@@H](CO)C(=O)N[C@@H](CC(N)=O)C(=O)N[C@H](C(=O)N[C@@H](Cc1ccc(O)cc1)C(N)=O)[C@@H](C)O)C(C)C)[C@@H](C)O [Example 39, N-alpha-[(S)-4-Carboxy-4-(19-carboxynonadecanoylamino)butyryl]-His-His-[His1,His17]-pramlintide] ({C20 diacid-γGlu}-HHHCNTATCATQRLANFLHHSSNNFGPILPPTNVGSNTY-NH2; disulfide 4-9)
[1]
  EC50: 0.06 nM
[2]
  half-life: 14 h
